Measurements from patent publication US8507676B2, “Heterocyclic oxime compounds” (Novartis AG, priority 2009, dated 2013).

Experiments:
[1] = biological target: c-MET receptor tyrosine kinase, GST-c-MET(969-1390) (Homo sapiens (Human), UniProt P08581); experiment: EPK c-MET profiling assay (LanthaScreen TR-FRET kinase assay); format: biochemical; settings: recombinant GST-c-MET(969-1390), 2 μM ATP, 60 minutes at room temperature; read-out: c-Met biochem (IC50 nM)
Protocol: A number of compounds of the present invention were assayed in an antibody based kinase phosphorylation assay as follows.
EPK c-MET Profiling Assay:
The EPK kinase assay for c-MET receptor tyrosine kinase was developed, using the purified recombinant GST-fusion protein, containing the cytoplasmic domain of the enzyme.
The kinase assay is based on the LanthaScreen™ technology. LanthaScreen™ is the detection of Time-Resolved Fluorescence Resonance Energy Transfer (TR-FRET) using lanthanide chelates to measure interactions between various binding partners. In a TR-FRET kinase assay, a long-lifetime lanthanide donor species is conjugated to an antibody that specifically binds to a phosphorylated product of a kinase reaction that is labeled with a suitable acceptor fluorophore. This antibody-mediated interaction brings the lanthanide donor and the acceptor into proximity such that resonance energy transfer can take place, resulting in a detectable increase in the FRET signal.
The kinase reactions were performed in 384 well microtiter plates in a total reaction volume of 10.05 μL. […]
Subsequently 5 μL of detection mix (50 mM Tris/HCl, 2 mM DTT, 0.05% Tween20, 20 μM sodium orthovanadate, 1% BSA, 1 nM Tb-PY20 antibody) were added to the stopped reactions. After 45 minutes incubation in dark at room temperature, the plates were measured in a Perkinelmer Envision fluorescence reader.

[2] = stability of the isolated compound at nucleophiles such as methanol; format: physicochemical; settings: degrades into starting material 75-R
Protocol: Previously prepared (E)-1-(3-(1-(5,7-difluoroquinolin-6-yl)ethyl)-[1,2,4]triazolo[4,3-b]pyridazin-6-yl)ethanone oxime (75-R, 100 mg, 0.271 mmol) in anhydrous THF (8 mL) was added diphosgene (0.1 mL, 0.829 mmol) dropwise at 0° C., and the reaction mixture was heated at 50° C. for 4 hr. Oil bath was removed, and the reaction mixture was cooled in an ice-water bath. An ammonia solution (0.5 N in dioxane, 8.0 mL, 4.0 mmol) was added dropwise. The temperature was allowed to rise to rt naturally, and the reaction mixture was stirred at rt overnight. Solvent was evaporated, and the residue was purified by column chromatography (8% methanol in ethyl acetate as eluent) to afford 64 mg (45.8% yield) of title compound as white solid, which was unstable at nucleophiles such as methanol, and was pro to degrade into starting material 75-R. ^1H-NMR (400 MHz, DMSO-d6) δ ppm 8.96 (d, 1H), 8.44 (d, 1H), 8.34 (d, 1H), 8.10 (d, 1H), 7.56-7.74 (m, 2H), 7.34 (s br, 2H), 5.27 (q, 1H), 2.02 (d, 3H), 2.03 (s, 3H). LCMS (method B): [MH]^+=412, tR=2.25 min.

Chain of c-MET receptor tyrosine kinase, GST-c-MET(969-1390) (P08581 969-1390): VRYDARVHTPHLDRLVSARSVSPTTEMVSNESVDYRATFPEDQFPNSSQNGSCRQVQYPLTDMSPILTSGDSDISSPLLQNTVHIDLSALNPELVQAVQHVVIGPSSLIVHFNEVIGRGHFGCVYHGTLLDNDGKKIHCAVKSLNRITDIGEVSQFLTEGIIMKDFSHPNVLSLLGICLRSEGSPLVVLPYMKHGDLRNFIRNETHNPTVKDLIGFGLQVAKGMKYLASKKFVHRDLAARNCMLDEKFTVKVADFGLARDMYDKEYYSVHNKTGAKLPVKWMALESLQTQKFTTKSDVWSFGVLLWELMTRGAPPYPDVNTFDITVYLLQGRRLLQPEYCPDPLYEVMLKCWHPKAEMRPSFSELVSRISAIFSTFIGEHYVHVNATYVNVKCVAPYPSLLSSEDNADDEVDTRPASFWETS

| SMILES | IC50 [1] [nM] | stability at nucleophiles such as methanol [2] |
| --- | --- | --- |
| C/C(=N\OCCO)c1ccc2nnc(C(F)(F)c3ccc4ncccc4c3)n2n1 [Example 50, (E)-1-(3-(Difluoro(quinolin-6-yl)methyl)-[1,2,4]triazolo[4,3-b]pyridazin-6-yl)ethanone O-2-hydroxyethyl oxime] | 1.5 |  |
| C/C(=N\OC(N)=O)c1ccc2nnc([C@H](C)c3c(F)cc4ncccc4c3F)n2n1 [Example 77-R, (R,E)-1-(3-(1-(5,7-difluoroquinolin-6-yl)ethyl)-[1,2,4]triazolo[4,3-b]pyridazin-6-yl)ethanone O-carbamoyl oxime] |  | unstable |
